Values joined by “and” are separate entries in the source; they are usually repeats but may differ in a detail not shown here. Equal values may be shown once.
Legend:
Experiment in all cases: cell-based
[1] = target: T1, human KOR (Gi3) (Homo sapiens, UniProt P41145, N322A); conditions: HEK-293T
T1 construct: expressed in transfected cells; host or cells: HEK293T

[2] = target: T2, human KOR (Gi3) (Homo sapiens, UniProt P41145, Y320L); conditions: HEK-293T
T2 construct: expressed in transfected cells; host or cells: HEK293T

[3] = target: T3, human KOR (Gi3) (Homo sapiens, UniProt P41145, K200A); conditions: HEK-293T
T3 construct: expressed in transfected cells; host or cells: HEK293T

[4] = target: T4, human KOR (Gi3) (Homo sapiens, UniProt P41145, N326A); conditions: HEK-293T
T4 construct: expressed in transfected cells; host or cells: HEK293T

[5] = target: T5, human KOR (Gi3) (Homo sapiens, UniProt P41145, T94V); conditions: HEK-293T
T5 construct: expressed in transfected cells; host or cells: HEK293T

[6] = target: T6, human KOR (Gi3) (Homo sapiens, UniProt P41145, N141A); conditions: HEK-293T
T6 construct: expressed in transfected cells; host or cells: HEK293T

[7] = target: T7, human KOR (Gi3) (Homo sapiens, UniProt P41145, R271A); conditions: HEK-293T
T7 construct: expressed in transfected cells; host or cells: HEK293T

[8] = target: T8, human KOR (Gi3) (Homo sapiens, UniProt P41145, R257A); conditions: HEK-293T
T8 construct: expressed in transfected cells; host or cells: HEK293T

[9] = target: T9, human KOR (Gi3) (Homo sapiens, UniProt P41145, D155A); conditions: HEK-293T
T9 construct: expressed in transfected cells; host or cells: HEK293T

[10] = target: T10, human KOR (Gi3) (Homo sapiens, UniProt P41145, G319L); conditions: HEK-293T
T10 construct: expressed in transfected cells; host or cells: HEK293T

[11] = target: T11, human KOR (Homo sapiens, UniProt P41145, Y320L); conditions: HTLA
T11 construct: expressed in transfected cells; host or cells: HEK 293T (ATCC, CRL-3216)

[12] = target: T12, human KOR (GoA) (Homo sapiens, UniProt P41145, D266A)
T12 construct: expressed in transfected cells; host or cells: HEK293T

[13] = target: T13, human KOR (GoA) (Homo sapiens, UniProt P41145, N326A)
T13 construct: expressed in transfected cells; host or cells: HEK293T

[14] = target: T14, human KOR (GoA) (Homo sapiens, UniProt P41145)
T14 construct: expressed in transfected cells; host or cells: HEK293T

[15] = target: T15, human KOR (GoA) (Homo sapiens, UniProt P41145, D105A)
T15 construct: expressed in transfected cells; host or cells: HEK293T

[16] = target: T16, human KOR (GoA) (Homo sapiens, UniProt P41145, E297A)
T16 construct: expressed in transfected cells; host or cells: HEK293T

[17] = target: T17, human KOR (GoA) (Homo sapiens, UniProt P41145, T94V)
T17 construct: expressed in transfected cells; host or cells: HEK293T

[18] = target: T18, human KOR (GoA) (Homo sapiens, UniProt P41145, R274A)
T18 construct: expressed in transfected cells; host or cells: HEK293T

[19] = target: T19, human KOR (GoA) (Homo sapiens, UniProt P41145, Y320L); conditions: HEK-293T
T19 construct: expressed in transfected cells; host or cells: HEK293T

[20] = target: T20, human KOR (GoA) (Homo sapiens, UniProt P41145, N141A)
T20 construct: expressed in transfected cells; host or cells: HEK293T

[21] = target: T21, human KOR (GoA) (Homo sapiens, UniProt P41145, F114L)
T21 construct: expressed in transfected cells; host or cells: HEK293T

[22] = target: T22, human KOR (GoA) (Homo sapiens, UniProt P41145, D334A)
T22 construct: expressed in transfected cells; host or cells: HEK293T

[23] = target: T23, human KOR (GoA) (Homo sapiens, UniProt P41145, R257A)
T23 construct: expressed in transfected cells; host or cells: HEK293T

[24] = target: T24, human KOR (GoA) (Homo sapiens, UniProt P41145, K200A)
T24 construct: expressed in transfected cells; host or cells: HEK293T

[25] = target: T25, human KOR (GoA) (Homo sapiens, UniProt P41145, L253A); conditions: HEK-293T
T25 construct: expressed in transfected cells; host or cells: HEK293T

[26] = target: T26, human KOR (GoA) (Homo sapiens, UniProt P41145, Y139L)
T26 construct: expressed in transfected cells; host or cells: HEK293T

[27] = target: T27, human KOR (GoA) (Homo sapiens, UniProt P41145, N322A)
T27 construct: expressed in transfected cells; host or cells: HEK293T

[28] = target: T28, human KOR (GoA) (Homo sapiens, UniProt P41145, G319L)
T28 construct: expressed in transfected cells; host or cells: HEK293T

[29] = target: T29, human KOR (GoA) (Homo sapiens, UniProt P41145, D155A)
T29 construct: expressed in transfected cells; host or cells: HEK293T

[30] = target: T30, human KOR (GoA) (Homo sapiens, UniProt P41145, R271A)
T30 construct: expressed in transfected cells; host or cells: HEK293T

[31] = target: T31, human KOR (GoA) (Homo sapiens, UniProt P41145, K227A)
T31 construct: expressed in transfected cells; host or cells: HEK293T

[32] = target: T32, human KOR (GoA) (Homo sapiens, UniProt P41145, F283A)
T32 construct: expressed in transfected cells; host or cells: HEK293T

[33] = target: T33, human KOR (GoA) (Homo sapiens, UniProt P41145, R170A)
T33 construct: expressed in transfected cells; host or cells: HEK293T

[34] = target: T34, human KOR (GoA) (Homo sapiens, UniProt P41145, Q115N)
T34 construct: expressed in transfected cells; host or cells: HEK293T
T34 sequence (P41145 whole entry Q115N): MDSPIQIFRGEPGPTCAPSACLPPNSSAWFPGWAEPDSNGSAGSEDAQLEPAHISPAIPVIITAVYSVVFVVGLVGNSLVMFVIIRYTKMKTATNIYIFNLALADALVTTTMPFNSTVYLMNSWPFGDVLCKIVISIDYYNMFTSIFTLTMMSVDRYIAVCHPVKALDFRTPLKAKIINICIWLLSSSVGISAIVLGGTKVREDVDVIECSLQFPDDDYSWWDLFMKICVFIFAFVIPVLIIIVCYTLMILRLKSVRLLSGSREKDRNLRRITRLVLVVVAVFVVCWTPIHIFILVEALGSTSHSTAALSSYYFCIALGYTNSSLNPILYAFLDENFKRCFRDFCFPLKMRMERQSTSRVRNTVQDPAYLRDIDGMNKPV

T11 sequence (P41145 whole entry Y320L): as the sequence (P41145 whole entry Q115N) above, with N115Q, Y320L counted along it
T14 sequence (P41145 whole entry): as the sequence (P41145 whole entry Q115N) above, with N115Q counted along it
T29 sequence (P41145 whole entry D155A): as the sequence (P41145 whole entry Q115N) above, with N115Q, D155A counted along it
T33 sequence (P41145 whole entry R170A): as the sequence (P41145 whole entry Q115N) above, with N115Q, R170A counted along it
T28 sequence (P41145 whole entry G319L): as the sequence (P41145 whole entry Q115N) above, with N115Q, G319L counted along it
T32 sequence (P41145 whole entry F283A): as the sequence (P41145 whole entry Q115N) above, with N115Q, F283A counted along it
T27 sequence (P41145 whole entry N322A): as the sequence (P41145 whole entry Q115N) above, with N115Q, N322A counted along it
T31 sequence (P41145 whole entry K227A): as the sequence (P41145 whole entry Q115N) above, with N115Q, K227A counted along it
T13 sequence (P41145 whole entry N326A): as the sequence (P41145 whole entry Q115N) above, with N115Q, N326A counted along it
T22 sequence (P41145 whole entry D334A): as the sequence (P41145 whole entry Q115N) above, with N115Q, D334A counted along it
T21 sequence (P41145 whole entry F114L): as the sequence (P41145 whole entry Q115N) above, with F114L, N115Q counted along it
T24 sequence (P41145 whole entry K200A): as the sequence (P41145 whole entry Q115N) above, with N115Q, K200A counted along it
T23 sequence (P41145 whole entry R257A): as the sequence (P41145 whole entry Q115N) above, with N115Q, R257A counted along it
T12 sequence (P41145 whole entry D266A): as the sequence (P41145 whole entry Q115N) above, with N115Q, D266A counted along it
T20 sequence (P41145 whole entry N141A): as the sequence (P41145 whole entry Q115N) above, with N115Q, N141A counted along it
T30 sequence (P41145 whole entry R271A): as the sequence (P41145 whole entry Q115N) above, with N115Q, R271A counted along it
T17 sequence (P41145 whole entry T94V): as the sequence (P41145 whole entry Q115N) above, with T94V, N115Q counted along it
T18 sequence (P41145 whole entry R274A): as the sequence (P41145 whole entry Q115N) above, with N115Q, R274A counted along it
T16 sequence (P41145 whole entry E297A): as the sequence (P41145 whole entry Q115N) above, with N115Q, E297A counted along it
T10 sequence (P41145 whole entry G319L): as the sequence (P41145 whole entry Q115N) above, with N115Q, G319L counted along it
T1 sequence (P41145 whole entry N322A): as the sequence (P41145 whole entry Q115N) above, with N115Q, N322A counted along it
T19 sequence (P41145 whole entry Y320L): as the sequence (P41145 whole entry Q115N) above, with N115Q, Y320L counted along it
T2 sequence (P41145 whole entry Y320L): as the sequence (P41145 whole entry Q115N) above, with N115Q, Y320L counted along it
T4 sequence (P41145 whole entry N326A): as the sequence (P41145 whole entry Q115N) above, with N115Q, N326A counted along it
T25 sequence (P41145 whole entry L253A): as the sequence (P41145 whole entry Q115N) above, with N115Q, L253A counted along it
T26 sequence (P41145 whole entry Y139L): as the sequence (P41145 whole entry Q115N) above, with N115Q, Y139L counted along it
T9 sequence (P41145 whole entry D155A): as the sequence (P41145 whole entry Q115N) above, with N115Q, D155A counted along it
T3 sequence (P41145 whole entry K200A): as the sequence (P41145 whole entry Q115N) above, with N115Q, K200A counted along it
T8 sequence (P41145 whole entry R257A): as the sequence (P41145 whole entry Q115N) above, with N115Q, R257A counted along it
T6 sequence (P41145 whole entry N141A): as the sequence (P41145 whole entry Q115N) above, with N115Q, N141A counted along it
T7 sequence (P41145 whole entry R271A): as the sequence (P41145 whole entry Q115N) above, with N115Q, R271A counted along it
T5 sequence (P41145 whole entry T94V): as the sequence (P41145 whole entry Q115N) above, with T94V, N115Q counted along it
T15 sequence (P41145 whole entry D105A): as the sequence (P41145 whole entry Q115N) above, with D105A, N115Q counted along it

CN(C(=O)/C=C/c1ccoc1)[C@@H]1CC[C@@]2(O)[C@H]3Cc4ccc(O)c5c4[C@@]2(CCN3CC2CC2)[C@H]1O5 [Nalfurafine, nalfurafine]
Emax [1]: 95.8% | Emax [2]: 66.9% | Emax [3]: 93.1% | Emax [4]: 106% | Emax [5]: 98.2% | Emax [6]: 107% | Emax [7]: 103% | Emax [8]: 100% | Emax [9]: 77.8% | Emax [10]: 106% | Emax [11]: 66 ± 7% | activation at 0.1 µM ([11]; read-out: Tango response): 43.6% | activation at 1 µM ([11]; read-out: Tango response): 51.8% | activation at 10 µM ([11]; read-out: Tango response): 79.2% | activation at […] ([11]; read-out: Tango response): 53% and 72.8% | FC vs wild type [12]: 132 | Emax ([12]; HEK-293T): 108% | FC vs wild type [13]: 4 | Emax ([13]; HEK-293T): 103% | Emax% [14]: 98.31% | FC vs wild type [14]: 1 | Emax ([14]; HEK-293T): 98.7% | FC vs wild type [15]: 110 | FC vs wild type [16]: 2 | Emax ([16]; HEK-293T): 98.9% | FC vs wild type [17]: 1 | Emax ([17]; HEK-293T): 99.7% | FC vs wild type [18]: 479 | Emax ([18]; HEK-293T): 99.5% | Emax [19]: 75.8% | FC vs wild type [20]: 9 | Emax ([20]; HEK-293T): 101% | FC vs wild type [21]: 40 | Emax ([21]; HEK-293T): 67.4% | FC vs wild type [22]: 18 | Emax ([22]; HEK-293T): 96.9% | FC vs wild type [23]: 14 and 10 | FC vs wild type [24]: 8 | Emax ([24]; HEK-293T): 91.4% | Emax [25]: 109% | FC vs wild type [26]: 3 | FC vs wild type [27]: 100 | Emax ([27]; HEK-293T): 91.3% | FC vs wild type [28]: 20 | Emax ([28]; HEK-293T): 101% | FC vs wild type [29]: 9 and < 10 | Emax ([29]; HEK-293T): 95.7% | FC vs wild type [30]: 135 | Emax ([30]; HEK-293T): 107% | FC vs wild type [31]: 1 | Emax ([31]; HEK-293T): 107% | FC vs wild type [32]: 13 | Emax ([32]; HEK-293T): 89.5% | FC vs wild type [33]: 6 and ~10 | Emax ([33]; HEK-293T): 86.9% | FC vs wild type [34]: 24 | Emax ([34]; HEK-293T): 65.8%
